From patent publication EP1247803A2, “Indolinone compounds suitable for modulation of protein kinases” (Sugen, Inc., priority 1996, dated 1998)

Tests used:
[1] = target: T1, EGFR (Homo sapiens, UniProt P00533); assay: EGFR ELISA assay (in vitro kinase activity, EGFR captured from A431 cell lysate); format: biochemical; parameters: concentration or dose not given beside the values
T1 construct: Add 7 ug A431 cell lysate per well (EGFR source); endogenous in cells; host or cells: A431
Outline: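 Receptor autophosphorylation was read by ELISA: anti-phosphotyrosine serum and an HRP-linked secondary with ABTS substrate, absorbance at 410 nm (reference 630 nm). The reaction ran 5 min with 3 µM ATP and 5 mM MnCl2 and was quenched by 20 mM EDTA. Compounds were first incubated 30 min with antibody-captured EGFR from A431 cell lysate.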

[2] = test system: MET; assay: MET biochemical kinase assay; parameters: species or system human; concentration or dose not given beside the values
Outline: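 Colorimetric signal from an HRP-linked anti-phosphotyrosine antibody with TMB measures phosphate incorporated into immobilised MET. The receptor is pulled from lysates by a polyclonal antibody against its cytoplasmic domain, then reacts in ATP- and metal-containing buffer with test compound.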

[3] = target: PDGF-R (Homo sapiens, UniProt P09619); assay: PDGF-R ELISA; format: cell-based
Text: A PDGF-R ELISA is described in International Patent Publication No. WO 96/40116, published December 19, 1996 by Tang et al.

T1 sequence (P00533 25-1210): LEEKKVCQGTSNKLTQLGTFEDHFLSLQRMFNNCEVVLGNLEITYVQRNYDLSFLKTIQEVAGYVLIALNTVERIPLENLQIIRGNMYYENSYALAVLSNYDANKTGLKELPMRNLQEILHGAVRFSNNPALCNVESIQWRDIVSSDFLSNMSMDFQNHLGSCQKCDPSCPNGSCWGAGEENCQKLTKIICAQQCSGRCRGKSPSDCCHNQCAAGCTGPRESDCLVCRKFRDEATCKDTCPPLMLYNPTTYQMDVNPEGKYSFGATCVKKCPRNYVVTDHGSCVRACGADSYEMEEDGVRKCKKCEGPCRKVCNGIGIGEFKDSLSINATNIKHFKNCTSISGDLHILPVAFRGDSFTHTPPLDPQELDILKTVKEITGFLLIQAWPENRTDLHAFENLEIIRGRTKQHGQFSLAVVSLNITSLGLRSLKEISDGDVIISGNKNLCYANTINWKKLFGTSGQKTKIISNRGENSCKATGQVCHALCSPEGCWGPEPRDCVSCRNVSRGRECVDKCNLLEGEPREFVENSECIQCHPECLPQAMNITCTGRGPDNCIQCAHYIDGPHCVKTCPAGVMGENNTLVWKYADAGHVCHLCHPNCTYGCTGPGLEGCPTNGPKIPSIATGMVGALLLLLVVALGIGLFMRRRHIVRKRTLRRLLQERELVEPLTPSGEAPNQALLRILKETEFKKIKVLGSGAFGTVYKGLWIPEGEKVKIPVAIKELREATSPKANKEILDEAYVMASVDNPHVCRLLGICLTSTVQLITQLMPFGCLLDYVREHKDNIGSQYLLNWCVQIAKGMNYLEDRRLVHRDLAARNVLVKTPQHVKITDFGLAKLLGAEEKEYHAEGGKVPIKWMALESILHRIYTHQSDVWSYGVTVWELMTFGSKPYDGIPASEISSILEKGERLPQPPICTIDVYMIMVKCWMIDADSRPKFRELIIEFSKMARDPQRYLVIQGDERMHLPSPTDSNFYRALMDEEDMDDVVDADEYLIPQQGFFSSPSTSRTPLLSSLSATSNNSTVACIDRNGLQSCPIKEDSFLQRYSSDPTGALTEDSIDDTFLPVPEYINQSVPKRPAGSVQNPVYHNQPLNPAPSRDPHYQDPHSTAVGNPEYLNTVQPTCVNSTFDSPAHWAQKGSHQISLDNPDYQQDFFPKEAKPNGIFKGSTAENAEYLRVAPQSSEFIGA
Chain of PDGF-R (P09619 33-1106, species assumed): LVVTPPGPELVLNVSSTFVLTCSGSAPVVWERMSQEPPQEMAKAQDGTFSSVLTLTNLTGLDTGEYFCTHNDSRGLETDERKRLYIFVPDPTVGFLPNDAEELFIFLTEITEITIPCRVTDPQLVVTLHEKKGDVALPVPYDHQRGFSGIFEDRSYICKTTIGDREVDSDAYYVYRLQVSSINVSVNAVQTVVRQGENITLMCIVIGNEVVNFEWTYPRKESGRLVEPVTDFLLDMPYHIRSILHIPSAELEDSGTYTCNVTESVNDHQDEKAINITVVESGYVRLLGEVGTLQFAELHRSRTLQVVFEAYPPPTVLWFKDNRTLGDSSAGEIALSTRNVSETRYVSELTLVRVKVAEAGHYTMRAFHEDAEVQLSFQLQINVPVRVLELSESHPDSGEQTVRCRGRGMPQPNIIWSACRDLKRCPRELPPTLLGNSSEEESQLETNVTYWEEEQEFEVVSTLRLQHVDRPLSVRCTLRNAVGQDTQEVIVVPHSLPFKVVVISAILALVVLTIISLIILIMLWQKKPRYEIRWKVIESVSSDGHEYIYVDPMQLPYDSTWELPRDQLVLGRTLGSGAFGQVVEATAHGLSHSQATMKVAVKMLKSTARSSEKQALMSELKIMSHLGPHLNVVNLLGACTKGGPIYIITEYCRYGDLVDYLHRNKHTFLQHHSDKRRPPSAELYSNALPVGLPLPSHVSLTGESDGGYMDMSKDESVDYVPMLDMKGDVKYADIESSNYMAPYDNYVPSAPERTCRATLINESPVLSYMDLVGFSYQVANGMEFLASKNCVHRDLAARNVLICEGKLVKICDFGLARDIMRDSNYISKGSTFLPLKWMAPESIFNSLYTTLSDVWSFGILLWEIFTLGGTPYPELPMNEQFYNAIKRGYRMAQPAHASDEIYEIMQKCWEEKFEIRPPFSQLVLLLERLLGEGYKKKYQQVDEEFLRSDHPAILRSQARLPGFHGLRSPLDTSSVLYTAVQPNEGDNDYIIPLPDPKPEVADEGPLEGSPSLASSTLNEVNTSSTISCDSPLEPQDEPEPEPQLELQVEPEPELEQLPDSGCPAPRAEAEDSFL

SMILES	Biochem EGFR %Inhibition [1]	Met Kinase % Inhibition [2]	PDGF Kinase %Inhibition [3]
Cn1cccc1C=C1C(=O)Nc2c(Br)cc(Br)cc21 [10717/A04]	29.0%	37.4%	
O=C1Nc2ccc(S(=O)(=O)Nc3ccc(C(F)(F)F)cc3)cc2C1=Cc1ccc[nH]1 [10717/E09]	-5.8%	19.2%	
COc1cccc(O)c1C=C1C(=O)Nc2ccc(S(=O)(=O)Nc3ccc(C(F)(F)F)cc3)cc21 [10717/E10]	-6.1%	35.9%	
Cc1[nH]c(C=C2C(=O)Nc3ccc(S(=O)(=O)Nc4ccc(C(F)(F)F)cc4)cc32)c(Br)c1Br [10717/E11]	44.9%	75.1%	
CCOc1ccccc1C=C1C(=O)Nc2ccc(S(=O)(=O)N3CCOCC3)cc21 [10717/F02]	6.2%	30.4%	
O=C1Nc2ccc(S(=O)(=O)N3CCOCC3)cc2C1=Cc1cccs1 [10717/F03]	-4.7%	42.8%	
Cn1cccc1C=C1C(=O)Nc2ccc(S(=O)(=O)N3CCOCC3)cc21 [10717/F04]	-15.7%	11.4%	
O=C1Nc2ccc(S(=O)(=O)N3CCOCC3)cc2C1=Cc1ccc(F)cc1 [10717/F05]	-20.1%	21.5%	
O=C1Nc2ccc(S(=O)(=O)N3CCOCC3)cc2C1=Cc1c[nH]c2ccccc12 [10717/F06]	-22.8%	49.0%	
O=C1Nc2ccc(CCCl)cc2C1=Cc1cccc(Br)c1 [10723/G10]	-4.1%	40.7%	-27.8%
CC(C)(C)c1cc(C=C2C(=O)Nc3ccc(CCCl)cc32)c(O)c(C(C)(C)C)c1 [10723/G11]	-35.0%	39.4%	-7.7%
CN(C)c1ccc(C=C2C(=O)Nc3c(Br)cc(Br)cc32)c2ccccc12 [10724/A02]	36.7%	61.7%	6.3%
O=C1Nc2c(Br)cc(Br)cc2C1=Cc1ccc(O)c([N+](=O)[O-])c1 [10724/A03]	17.2%	30.7%	0.1%
O=C1Nc2c(Br)cc(Br)cc2C1=Cc1ccc([N+](=O)[O-])c(O)c1 [10724/A04]	15.4%	62.6%	5.0%
O=C1Nc2c(Br)cc(Br)cc2C1=Cc1cc2c3c(c1O)CCCN3CCC2 [10724/A05]	20.3%	68.4%	5.0%
CC(C)c1cc(C=C2C(=O)Nc3c(Br)cc(Br)cc32)cc(C(C)C)c1O [10724/A06]	1.4%	46.8%	30.7%
O=C1Nc2c(Br)cc(Br)cc2C1=Cc1cc2ccccc2o1 [10724/A07]	18.3%	58.7%	16.1%
O=C1Nc2c(Br)cc(Br)cc2C1=Cc1cccn1-c1ccc(Cl)cc1 [10724/A09]	1.6%	37.5%	19.6%
CCc1ccc(C=C2C(=O)Nc3c(Br)cc(Br)cc32)o1 [10724/A10]	40.0%	83.8%	28.6%
Cc1csc2sc(C=C3C(=O)Nc4c(Br)cc(Br)cc43)c(C)c12 [10724/A11]	-16.6%	27.2%	29.3%
O=C1Nc2ccc(I)cc2C1=Cc1ccc(O)c([N+](=O)[O-])c1 [10724/B03]	14.9%	51.0%	14.7%

SMILES	Biochem EGFR %Inhibition [1]	Met Kinase % Inhibition [2]	PDGF Kinase %Inhibition [3]
CC(C)c1cc(C=C2C(=O)Nc3ccc(I)cc32)cc(C(C)C)c1O [10724/B06]	30.9%	52.1%	43.2%
O=C1Nc2ccc(I)cc2C1=Cc1cc2ccccc2o1 [10724/B07]	44.0%	57.9%	27.2%
O=C1Nc2ccc(I)cc2C1=Cc1cccn1-c1ccc(Cl)cc1 [10724/B09]	8.7%	43.8%	25.8%
CCc1ccc(C=C2C(=O)Nc3ccc(I)cc32)o1 [10724/B10]	76.2%	95.0%	9.8%
Cc1csc2sc(C=C3C(=O)Nc4ccc(I)cc43)c(C)c12 [10724/B11]	-23.2%	43.0%	23.0%
Cc1c(Br)ccc2c1C(=Cc1ccc(N(C)C)c3ccccc13)C(=O)N2 [10724/C02]	53.6%	40.7%	-9.0%
Cc1c(Br)ccc2c1C(=Cc1ccc(O)c([N+](=O)[O-])c1)C(=O)N2 [10724/C03]	16.5%	68.7%	4.3%
Cc1c(Br)ccc2c1C(=Cc1ccc([N+](=O)[O-])c(O)c1)C(=O)N2 [10724/C04]	13.2%	84.3%	24.4%
Cc1c(Br)ccc2c1C(=Cc1cc3c4c(c1O)CCCN4CCC3)C(=O)N2 [10724/C05]	-0.8%	67.7%	20.3%
Cc1c(Br)ccc2c1C(=Cc1cc(C(C)C)c(O)c(C(C)C)c1)C(=O)N2 [10724/C06]	-2.4%	15.4%	34.9%
Cc1c(Br)ccc2c1C(=Cc1cc3ccccc3o1)C(=O)N2 [10724/C07]	9.4%	14.2%	22.3%
Cc1c(Br)ccc2c1C(=Cc1cccn1-c1ccc(Cl)cc1)C(=O)N2 [10724/C09]	1.0%	5.3%	20.3%
CCc1ccc(C=C2C(=O)Nc3ccc(Br)c(C)c32)o1 [10724/C10]	13.8%	91.2%	27.2%
Cc1c(Br)ccc2c1C(=Cc1sc3scc(C)c3c1C)C(=O)N2 [10724/C11]	0.7%	4.9%	23.0%
CNS(=O)(=O)c1ccc2c(c1)C(=Cc1ccc(N(C)C)c3ccccc13)C(=O)N2 [10724/D02]	40.5%	37.5%	-9.6%
CNS(=O)(=O)c1ccc2c(c1)C(=Cc1ccc(O)c([N+](=O)[O-])c1)C(=O)N2 [10724/D03]	2.5%	18.2%	-15.2%
CNS(=O)(=O)c1ccc2c(c1)C(=Cc1ccc([N+](=O)[O-])c(O)c1)C(=O)N2 [10724/D04]	5.4%	70.5%	-1.3%
CNS(=O)(=O)c1ccc2c(c1)C(=Cc1cc3c4c(c1O)CCCN4CCC3)C(=O)N2 [10724/D05]	-8.4%	36.1%	35.6%
CNS(=O)(=O)c1ccc2c(c1)C(=Cc1cc(C(C)C)c(O)c(C(C)C)c1)C(=O)N2 [10724/D06]	-12.4%	23.0%	40.4%
CNS(=O)(=O)c1ccc2c(c1)C(=Cc1cc3ccccc3o1)C(=O)N2 [10724/D07]	25.6%	38.1%	7.0%
